The results in this text go back to patent publication US10787462B2, “Heterocyclic compound” (TAKEDA PHARMACEUTICAL COMPANY LIMITED, priority 2015, dated 2020).

In this test the target is T1, human RIPK1 (1-375) (Homo sapiens, UniProt Q13546).
T1 construct: human RIPK1 (1-375) gene; GST; made in house; host or cells: Sf-9 insect cells
T1 sequence (Q13546 1-375): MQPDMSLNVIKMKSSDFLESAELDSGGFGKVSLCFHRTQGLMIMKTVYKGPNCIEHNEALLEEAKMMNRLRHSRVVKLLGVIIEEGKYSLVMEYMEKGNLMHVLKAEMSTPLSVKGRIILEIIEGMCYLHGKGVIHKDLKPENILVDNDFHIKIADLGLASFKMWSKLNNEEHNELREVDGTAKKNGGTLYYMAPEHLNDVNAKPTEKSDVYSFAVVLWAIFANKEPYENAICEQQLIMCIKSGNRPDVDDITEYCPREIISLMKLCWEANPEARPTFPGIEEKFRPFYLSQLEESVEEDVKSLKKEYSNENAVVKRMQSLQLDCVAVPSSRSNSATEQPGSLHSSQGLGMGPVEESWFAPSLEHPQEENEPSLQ
As to the kind of experiment: Human RIPK1 enzyme inhibitory effect (ADP-Glo Kinase Assay). The test is classed as biochemical. Conditions: read-out: human RIPK1 enzyme inhibitory effect at 10 μM (% inhibition), 10 μM test compound; well without enzyme = 100% inhibition. The method, boiled down: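 Human RIPK1 (1-375), GST-purified from Sf-9 cells, preincubated 20 min at room temperature with compound in 25 mM HEPES pH 7.5, 10 mM MgCl2, 0.01% Tween-20, 2 mM DTT. Reaction started with 0.6 mM ATP solution (stock), run 120 min at room temperature. ADP measured by ADP-Glo luminescence.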
Background: In ADP-Glo the light output rises with the ADP produced.

What is called inhibition is the drop in the measured response relative to a control, in per cent. For `CNC(=O)c1ccc2c(c1)CCC(N1CCc3c(nn(Cc4ccccc4)c3Cl)C1=O)C(=O)N2C` (stereo not shown) [Example 135, 3-(2-benzyl-3-chloro-7-oxo-2,4,5,7-tetrahydro-6H-pyrazolo[3,4-c]pyridin-6-yl)-N,1-dimethyl-2-oxo-2,3,4,5-tetrahydro-1H-1-benzazepine-7-carboxamide], the inhibition at 10 µM was determined as 101%.
